pIC50: −log10 of the molar value.
How the values were obtained:
[1] = test system: SMMC-7721; assay: Cytotoxicity against human SMMC7721 cells assessed as reduction in cell viability after 48 hrs by MTT assay; assay type: functional, cell-based; conditions: SMMC-7721, 48 h
[2] = test system: L02; assay: Cytotoxicity against human LO2 cells assessed as reduction in cell viability after 48 hrs by MTT assay; assay type: cell-based; conditions: L02, 48 h
[3] = test system: HepG2; assay: Cytotoxicity against human HepG2 cells assessed as reduction in cell viability after 48 hrs by MTT assay; assay type: functional, cell-based; conditions: HepG2, 48 h
[4] = test system: SMMC-7721; assay: Cell cycle arrest in human SMMC7721 cells assessed as accumulation at G2/M phase at 0.18 uM after 24 hrs by propidium iodide staining based flow cytometry (reference value: 3.43%); assay type: functional
[5] = test system: SMMC-7721; assay: Induction of apoptosis in human SMMC7721 cells assessed as late apoptotic cells at 0.18 uM after 24 hrs by Annexin V-APC/7-AAD staining based flow cytometry (reference value: 10.72%); assay type: functional
[6] = test system: SMMC-7721; assay: Cell cycle arrest in human SMMC7721 cells assessed as accumulation at G2/M phase at 0.72 uM after 24 hrs by propidium iodide staining based flow cytometry (reference value: 3.43%); assay type: functional
[7] = test system: SMMC-7721; assay: Cell cycle arrest in human SMMC7721 cells assessed as accumulation at S phase at 0.36 uM after 24 hrs by propidium iodide staining based flow cytometry (reference value: 23.68%); assay type: functional
[8] = test system: SMMC-7721; assay: Induction of apoptosis in human SMMC7721 cells assessed as early apoptotic cells at 0.18 uM after 24 hrs by Annexin V-APC/7-AAD staining based flow cytometry (reference value: 7.44%); assay type: functional
[9] = test system: SMMC-7721; assay: Induction of apoptosis in human SMMC7721 cells assessed as late apoptotic cells at 0.36 uM after 24 hrs by Annexin V-APC/7-AAD staining based flow cytometry (reference value: 10.72%); assay type: functional
[10] = test system: SMMC-7721; assay: Induction of apoptosis in human SMMC7721 cells assessed as early apoptotic cells at 0.72 uM after 24 hrs by Annexin V-APC/7-AAD staining based flow cytometry (reference value: 7.44%); assay type: functional
[11] = test system: SMMC-7721; assay: Cell cycle arrest in human SMMC7721 cells assessed as accumulation at G0/G1 phase at 0.72 uM after 24 hrs by propidium iodide staining based flow cytometry (reference value: 72.89%); assay type: functional
[12] = test system: SMMC-7721; assay: Cell cycle arrest in human SMMC7721 cells assessed as accumulation at S phase at 0.72 uM after 24 hrs by propidium iodide staining based flow cytometry (reference value: 23.68%); assay type: functional
[13] = test system: SMMC-7721; assay: Induction of apoptosis in human SMMC7721 cells assessed as necrotic cells at 0.36 uM after 24 hrs by Annexin V-APC/7-AAD staining based flow cytometry (reference value: 0.77%); assay type: functional
[14] = test system: SMMC-7721; assay: Induction of apoptosis in human SMMC7721 cells assessed as necrotic cells at 0.72 uM after 24 hrs by Annexin V-APC/7-AAD staining based flow cytometry (reference value: 0.77%); assay type: functional
[15] = test system: SMMC-7721; assay: Induction of apoptosis in human SMMC7721 cells assessed as live cells at 0.36 uM after 24 hrs by Annexin V-APC/7-AAD staining based flow cytometry (reference value: 81.07%); assay type: functional
[16] = test system: SMMC-7721; assay: Cell cycle arrest in human SMMC7721 cells assessed as accumulation at G0/G1 phase at 0.18 uM after 24 hrs by propidium iodide staining based flow cytometry (reference value: 72.89%); assay type: functional
[17] = test system: SMMC-7721; assay: Induction of apoptosis in human SMMC7721 cells assessed as live cells at 0.18 uM after 24 hrs by Annexin V-APC/7-AAD staining based flow cytometry (reference value: 81.07%); assay type: functional
[18] = test system: SMMC-7721; assay: Induction of apoptosis in human SMMC7721 cells assessed as live cells at 0.72 uM after 24 hrs by Annexin V-APC/7-AAD staining based flow cytometry (reference value: 81.07%); assay type: functional
[19] = test system: SMMC-7721; assay: Induction of apoptosis in human SMMC7721 cells assessed as late apoptotic cells at 0.72 uM after 24 hrs by Annexin V-APC/7-AAD staining based flow cytometry (reference value: 10.72%); assay type: functional
[20] = test system: SMMC-7721; assay: Cell cycle arrest in human SMMC7721 cells assessed as accumulation at G2/M phase at 0.36 uM after 24 hrs by propidium iodide staining based flow cytometry (reference value: 3.43%); assay type: functional
[21] = test system: SMMC-7721; assay: Induction of apoptosis in human SMMC7721 cells after 24 hrs by Annexin V-APC/7-AAD staining based flow cytometry; assay type: functional, cell-based
[22] = test system: SMMC-7721; assay: Cell cycle arrest in human SMMC7721 cells assessed as accumulation at G2/M phase after 24 hrs by propidium iodide staining based flow cytometry; assay type: functional
[23] = test system: SMMC-7721; assay: Induction of apoptosis in human SMMC7721 cells assessed as early apoptotic cells at 0.36 uM after 24 hrs by Annexin V-APC/7-AAD staining based flow cytometry (reference value: 7.44%); assay type: functional
[24] = test system: SMMC-7721; assay: Induction of apoptosis in human SMMC7721 cells assessed as necrotic cells at 0.18 uM after 24 hrs by Annexin V-APC/7-AAD staining based flow cytometry (reference value: 0.77%); assay type: functional
[25] = test system: SMMC-7721; assay: Cell cycle arrest in human SMMC7721 cells assessed as accumulation at S phase at 0.18 uM after 24 hrs by propidium iodide staining based flow cytometry (reference value: 23.68%); assay type: functional
[26] = test system: SMMC-7721; assay: Cell cycle arrest in human SMMC7721 cells assessed as accumulation at G0/G1 phase at 0.36 uM after 24 hrs by propidium iodide staining based flow cytometry (reference value: 72.89%); assay type: functional

## COC(=O)[C@]1(C)CCC[C@]2(C)c3cc(Br)c4nc(NCc5cc(Cl)ccc5O)[nH]c4c3CC[C@@H]12
[1]
  pIC50: 5.50
[2]
  pIC50: 4.57
[3]
  pIC50: 4.93

## COC(=O)[C@]1(C)CCC[C@]2(C)c3cc(Br)c4nc(/N=C/c5ccc(F)cc5O)[nH]c4c3CC[C@@H]12
[1]
  pIC50: 4.91
[2]
  pIC50: 4.72
[3]
  pIC50: 5.91

## COC(=O)[C@]1(C)CCC[C@]2(C)c3cc(Br)c4nc(NCc5ccc(F)cc5O)[nH]c4c3CC[C@@H]12
[1]
  pIC50: 4.98
[2]
  pIC50: 4.66
[3]
  pIC50: 5.34

## COC(=O)[C@]1(C)CCC[C@]2(C)c3cc(Br)c(N)c(N)c3CC[C@@H]12
[1]
  pIC50: < 4.30
[2]
  pIC50: < 4.30
[3]
  pIC50: < 4.30

## COC(=O)[C@]1(C)CCC[C@]2(C)c3cc(Br)c([N+](=O)[O-])c([N+](=O)[O-])c3CC[C@@H]12
[1]
  pIC50: 4.53
[2]
  pIC50: < 4.30
[3]
  pIC50: 4.47

## COc1cc([C@@H]2c3cc4c(cc3[C@@H](O[C@@H]3O[C@@H]5CO[C@@H](C)O[C@H]5[C@H](O)[C@H]3O)[C@H]3COC(=O)[C@H]23)OCO4)cc(OC)c1O [ETOPOSIDE]
[1]
  pIC50: 6.82
[2]
  pIC50: 5.42
[3]
  pIC50: 6.08

## COC(=O)[C@]1(C)CCC[C@]2(C)c3cc(Br)c4nc(/N=C/c5cc(Cl)ccc5O)[nH]c4c3CC[C@@H]12
[1]
  pIC50: 5.66
[2]
  pIC50: 5.18
[3]
  pIC50: 5.74

## COC(=O)[C@]1(C)CCC[C@]2(C)c3cc(Br)c4nc(/N=C/c5ccccc5O)[nH]c4c3CC[C@@H]12
[1]
  pIC50: 5.61
[2]
  pIC50: 5.20
[3]
  pIC50: 6.68

## COC(=O)[C@]1(C)CCC[C@]2(C)c3cc(Br)c4nc(NCc5cccc(F)c5O)[nH]c4c3CC[C@@H]12
[1]
  pIC50: 5.37
[2]
  pIC50: 4.90
[3]
  pIC50: 5.78

## CCN(CC)c1ccc(/C=N/c2nc3c(Br)cc4c(c3[nH]2)CC[C@H]2[C@](C)(C(=O)OC)CCC[C@]42C)c(O)c1
[1]
  pIC50: 6.06
[2]
  pIC50: 5.54
[3]
  pIC50: 6.80

## COC(=O)[C@]1(C)CCC[C@]2(C)c3cc(Br)c4nc(NCc5cc([N+](=O)[O-])ccc5O)[nH]c4c3CC[C@@H]12
[1]
  pIC50: 5.86
[2]
  pIC50: 4.74
[3]
  pIC50: 5.26

## COC(=O)[C@]1(C)CCC[C@]2(C)c3cc(Br)c4nc(/N=C/c5ccc6ccccc6c5O)[nH]c4c3CC[C@@H]12
[1]
  pIC50: 5.68
[2]
  pIC50: 4.97
[3]
  pIC50: 5.97

## COC(=O)[C@]1(C)CCC[C@]2(C)c3cc(Br)c4nc(/N=C/c5cc(F)ccc5O)[nH]c4c3CC[C@@H]12
[4]
  Activity: 5.96%
[5]
  Activity: 10.44%
[6]
  Activity: 10.91%
[7]
  Activity: 19.61%
[8]
  Activity: 12.71%
[9]
  Activity: 10.21%
[10]
  Activity: 9.75%
[11]
  Activity: 66.4%
[12]
  Activity: 22.69%
[13]
  Activity: 0.87%
[14]
  Activity: 1%
[1]
  pIC50: 6.44
[15]
  Activity: 59.86%
[16]
  Activity: 76.93%
[17]
  Activity: 75.91%
[18]
  Activity: 7.97%
[19]
  Activity: 81.27%
[20]
  Activity: 6.45%
[21]
  Activity: Dose-dependent effect
[22]
  Activity: Dose-dependent effect
[23]
  Activity: 29.05%
[24]
  Activity: 0.95%
[2]
  pIC50: 5.41
[25]
  Activity: 17.11%
[26]
  Activity: 73.94%
[3]
  pIC50: 6.21

## COC(=O)[C@]1(C)CCC[C@]2(C)c3cc(Br)c4nc(NCc5cc(C)ccc5O)[nH]c4c3CC[C@@H]12
[1]
  pIC50: 6.08
[2]
  pIC50: 4.76
[3]
  pIC50: 5.21

## COC(=O)[C@]1(C)CCC[C@]2(C)c3cc(Br)c4nc(/N=C/c5cccc(F)c5O)[nH]c4c3CC[C@@H]12
[1]
  pIC50: 5.70
[2]
  pIC50: 5.08
[3]
  pIC50: 6.37

## COC(=O)[C@]1(C)CCC[C@]2(C)c3cc(Br)c4nc(NCc5cc(Br)ccc5O)[nH]c4c3CC[C@@H]12
[1]
  pIC50: 5.40
[2]
  pIC50: 4.67
[3]
  pIC50: 5.38

## COC(=O)[C@]1(C)CCC[C@]2(C)c3cc(Br)c4nc(/N=C/c5cc(C)ccc5O)[nH]c4c3CC[C@@H]12
[1]
  pIC50: 6.25
[2]
  pIC50: 5.52
[3]
  pIC50: 6.92

## COC(=O)[C@]1(C)CCC[C@]2(C)c3cc(Br)c4nc(NCc5cc(Cl)cc(Cl)c5O)[nH]c4c3CC[C@@H]12
[1]
  pIC50: 6.03
[2]
  pIC50: 5.14
[3]
  pIC50: 5.62

## CCN(CC)c1ccc(CNc2nc3c(Br)cc4c(c3[nH]2)CC[C@H]2[C@](C)(C(=O)OC)CCC[C@]42C)c(O)c1
[1]
  pIC50: 5.42
[2]
  pIC50: 4.91
[3]
  pIC50: 5.47

## COC(=O)[C@]1(C)CCC[C@]2(C)c3cc(Br)c4nc(/N=C/c5cc(Cl)cc(Cl)c5O)[nH]c4c3CC[C@@H]12
[1]
  pIC50: 5.76
[2]
  pIC50: 5.14
[3]
  pIC50: 6.16

## COC(=O)[C@]1(C)CCC[C@]2(C)c3cc(Br)c4nc(NCc5ccccc5O)[nH]c4c3CC[C@@H]12
[1]
  pIC50: 5.50
[2]
  pIC50: < 4.30
[3]
  pIC50: 4.65

## COC(=O)[C@]1(C)CCC[C@]2(C)c3cc(Br)c4nc(/N=C/c5cc(Br)ccc5O)[nH]c4c3CC[C@@H]12
[1]
  pIC50: 5.55
[2]
  pIC50: 5.14
[3]
  pIC50: 6.14

## COC(=O)[C@]1(C)CCC[C@]2(C)c3cc(Br)c4nc(N)[nH]c4c3CC[C@@H]12
[1]
  pIC50: 5.06
[2]
  pIC50: < 4.30
[3]
  pIC50: 4.82

## COC(=O)[C@]1(C)CCC[C@]2(C)c3cc(Br)c4nc(NCc5cc(F)ccc5O)[nH]c4c3CC[C@@H]12
[1]
  pIC50: 4.98
[2]
  pIC50: 4.50
[3]
  pIC50: 5.34

## COC(=O)[C@]1(C)CCC[C@]2(C)c3cc(Br)c4nc(/N=C/c5cc([N+](=O)[O-])ccc5O)[nH]c4c3CC[C@@H]12
[1]
  pIC50: 5.89
[2]
  pIC50: 5.06
[3]
  pIC50: 5.62

## COC(=O)[C@]1(C)CCC[C@]2(C)c3cc(Br)c4nc(NCc5ccc6ccccc6c5O)[nH]c4c3CC[C@@H]12
[1]
  pIC50: 4.65
[2]
  pIC50: < 4.30
[3]
  pIC50: 4.67
